From patent publication US20240158359A1, “HYDROLYSIS-RESISTANT ESTERS FOR DRUG AND IMAGING AGENT DELIVERY” (The Board of Trustees of the University of lllinois, priority 2022, published 2024)

Tests used:
A549 cells = assay: MTT assay using MTX-Me2 and MTX-(PhiPr)2; format: cell-based; conditions: highest concentration (10 μM), 24 hours
Experimental: Next, we modified the two carboxylates in methotrexate (a potent anticancer and immunosuppressive drug) to afford the methyl (MTX-Me2) or Ph^iPr (MTX-(Ph^iPr)2) ester variants (FIG. 2b). A549 cells were cultured and treated with MTX-Me2 or MTX-(Ph^iPr)2 at various concentrations for 24 hours before they were subjected to MTT analyses. […] Statistical analysis for FIG. 3b, FIG. 3c and FIG. 3d was performed using a two-tailed t-test (α=0.05, **** P<0.001)
48-well plates were seeded with 30,000 A549 cells per well (500 μL of 60,000 cells/mL) and incubated at 37° C. with 5% CO2 for 24 hours. Media was removed and fresh serum-free RPMI 1640 containing […] of MTX-Me2 or MTX-(PriPr)2 were added (0.1% DMSO final v/v). The media was removed after 24 hours incubation and replaced with 500 μL of a 20:1 mixture of serum-free RPMI 1640 and (3-(4,5-dimethylthiazol2-yl)-2,5-diphenyl-tetrazolium bromide (MTT, 5 mg/mL stock in PBS). The cells were incubated for 2 hours under the same condition and then the medium was removed and replaced with DMSO (500 μL/well). The absorbance of each well was recorded at 555 nm on a microplate reader. Viability was calculated by the absorbance relative to the vehicle control.

4T1-Luc cells = assay: Ester stability in live 4T1-Luc cells, BL imaging; format: cell-based, murine; conditions: 10 μM
Experimental: First, we prepared BL660-Me, a methyl ester derivative of BL660 as shown in FIG. 2a for comparison to the benzyl ester (4) of FIG. 1a. Next, we cultured 4T1 murine breast cancer cells, stably expressing the luciferase enzyme (4T1-Luc). The cells were then treated with a DMSO (dimethyl sulfoxide) vehicle control, BL660-Me or Compound (4) (FIG. 3a and FIG. 10a, b, c respectively?). Imaging was performed using the IVIS In Vivo Imaging System.
4T1-Luc cell was cultured in phenol red-free RPMI 1640 (ATCC) with 10% fetal bovine serum (FBS, Sigma Aldrich), and 1% penicillin/streptomycin (Corning).
Evaluation of BL660-Me and 4 in 4T1-Luc Cells. 4T1-Luc cells (180K) were seeded into 24-well plates and incubated for 24 hours. The cells were ˜85% confluent. The media was removed and replaced with serum-free RPMI 1640. An initial background scan was recorded on an IVIS imaging system in open mode where no filters were applied. Cells were then treated with DMSO (2.5 μL, 0.5%), BL660-Me, or compound 4 in DMSO (10 μM final concentration). After 30 minutes incubation at 37° C., bioluminescence was collected. ROIs were drawn around each well. The total luminescence count for each well for a given condition was averaged. The signal intensity was quantified using the Living Image Analysis Software.

porcine liver esterase = assay: Esterase reactivity: treatment with porcine liver esterase, BL readout; format: in vitro ADME; conditions: 10 μM, porcine liver esterase 0.1 units/mL, 37° C., pH 7.4, 20, 40 and 60 minutes
Source text: The enzymatic rates, reported as total luminescence counts per minute, in descending order are: Compound (1) (31.0±6.8×10^2), (3) (9.5±1.2×10^2), and (2) (0.6±0.1×10^2) (FIG. 1c and FIG. 9). The greater stability imparted by the aromatic ring is not surprising since esterase reactivity can be readily attenuated with bulkier substituents.

[1] = Hydrolytic stability of BL660 esters in PBS, luciferase BL readout; format: physicochemical; conditions: for rate of hydrolysis: 10 μM, PBS pH 7.4, 37° C., 1, 6 and 12 hours
Experimental: We began our analysis of stability by incubating BL660 esters of Compound (1), Compound (2), and Compound (3) at 37° C. in PBS (phosphate-buffered saline) (pH 7.4). After 1, 6, and 12 hours, luciferase was added (10mU, 37° C., pH 7.4) to initiate BL production. The rate of hydrolysis, reported as total luminescence counts per hour, indicates hydrolysis in descending order is: Compound (1) (13.9±1.4×10^3); Compound (2) (3.3±0.6×10^3), and Compound (3) (1.0±0.1×10^3) (FIG. 1b, wherein the esters are indicated on the horizontal axis) and FIG. 8 (wherein the respective timeline plots are identified beneath the horizontal axis as (1), (2), etc.). Luminescent counts were recorded using an IVIS In Vivo Imaging System. […] Without wishing to be bound by any theory, we speculate hydrolysis of (3) may involve an SN1 mechanism, thus favoring formation of a double benzylic carbocation.

| Structure (SMILES) | viability (A549 cells) [%] | enzymatic rate (porcine liver esterase) | rate of hydrolysis [1] | further results |
| --- | --- | --- | --- | --- |
| CC(C)C(OC(=O)CCC(NC(=O)c1ccc(N(C)Cc2cnc3nc(N)nc(N)c3n2)cc1)C(=O)OC(c1ccccc1)C(C)C)c1ccccc1 (mixture of isomers) [MTX-(Ph^iPr)2] | 100 |  |  |  |
| CCN(CC)c1ccc(C=CC=CC2=NC(C(=O)OC)CS2)cc1 (stereo not drawn) [BL660-Me] |  |  |  | luminescence relative to Compound (4) (4T1-Luc cells; 30 mins): 31 fold; luminescence relative to the vehicle (4T1-Luc cells; 30 mins): 55 fold; total luminescence count (4T1-Luc cells; 30 mins at 37° C.): 94.1±5.9×10^3 total luminescence count |
| CCN(CC)c1ccc(C=CC=CC2=NC(C(=O)OCc3ccccc3)CS2)cc1 (stereo not drawn) [Compound (1)] |  | 31.0±6.8×10^2 total luminescence counts per minute | 13.9±1.4×10^3 total luminescence counts per hour |  |
| CCN(CC)c1ccc(C=CC=CC2=NC(C(=O)OC(c3ccccc3)c3ccccc3)CS2)cc1 (stereo not drawn) [Compound (2)] |  | 0.6±0.1×10^2 total luminescence counts per minute | 3.3±0.6×10^3 total luminescence counts per hour |  |
| CCN(CC)c1ccc(C=CC=CC2=NC(C(=O)OC(C)c3ccccc3)CS2)cc1 (stereo not drawn) [Compound (3)] |  | 9.5±1.2×10^2 total luminescence counts per minute | 1.0±0.1×10^3 total luminescence counts per hour | effectiveness at blocking hydrolysis, methyl substituent of (3) versus phenyl group of (2) ([1]; PBS pH 7.4, 37° C.): over three-fold more effective at blocking hydrolysis |
| COC(=O)CCC(NC(=O)c1ccc(N(C)Cc2cnc3nc(N)nc(N)c3n2)cc1)C(=O)OC (stereo not drawn) [MTX-Me2, reference compound] | ~63 |  |  |  |
